Reference: patent EP1118615A1, “NOVEL SALTS OF PYRIDOPYRAZINE COMPOUND AND CRYSTALS THEREOF” (FUJISAWA PHARMACEUTICAL CO., LTD., priority 1998, dated 2000)

Columns and labels:
[1] = system: ConA (concanavalin A) -induced mouse hepatitis model; experiment: (B3) ConA (concanavalin A)-induced mouse hepatitis model; format: in vivo, Balb/c mice; details: 18 hours after ConA
Method: (B3) ConA (concanavalin A) -induced mouse hepatitis model
[Method] Male Balb/c mice aged 9 weeks were deprived of food for 20 hours and the drug or the solvent vehicle was administered orally in predetermined doses. After 1 hour, saline was administered intravenously to the NORMAL group and concanavalin A, 0.4 mg/mouse, was administered similarly to the CONTROL and DRUG groups. At 18 hours after administration of ConA, the blood was drawn and the liver isolated. Using the blood, the liver-derived enzymes (ALT and AST) in plasma were assayed. The liver was fixed in formalin and pathological specimens were prepared. Histopathological findings (inflammatory cell infiltration and liver cell necrosis) were evaluated.

[2] = system: IL-2; experiment: (A3) Anti-CD3/CD28 antibody-stimulated cytokine production inhibitory activity in PBMC, ELISA: IL-2; format: cell-based; details: Homo sapiens, anti-CD3 and anti-CD28 antibodies, 24-hr culture supernatant
Method: (§1) (A3) Anti-CD3/CD28 antibody-stimulated TNF α production inhibitory activity in human peripheral blood monocytes (PBMC)
(§2) [Method] Monocytes isolated from healthy adult male volunteers were cultured and stimulated with anti-CD3 and anti-CD28 antibodies and the amounts of TNF, INF, 1L-2, IL-4 and IL-10 in the 24-hr culture supernatant were determined by ELISA.

[3] = system: DGalN-induced rat hepatitis model; experiment: (B2) DGalN-induced rat hepatitis model; format: in vivo, Wistar rats; details: oral, 24 hours after DGalN
Method: (B2) DGalN-induced rat hepatitis model
[Method] Male Wistar rats aged 12 weeks were deprived of food for 24 hours and dosed orally with the drug or the solvent vehicle in predetermined doses. Immediately thereafter, saline was administered intraperitoneally to the NORMAL group and D-galactosamine hydrochloride (DGalN), 400 mg/kg, was administered similarly to the CONTROL and DRUG groups. At 24 hours after administration of DGalN, the blood was drawn and the liver isolated. Using the blood, the liver-derived en zymes (ALT, AST) in plasma were assayed. The liver was fixed in formalin and pathological specimens were prepared. Histopathological findings (inflammatory cell infiltration and liver cell necrosis) were evaluated.

[4] = system: IL-10; experiment: (A3) Anti-CD3/CD28 antibody-stimulated cytokine production inhibitory activity in PBMC, ELISA: IL-10; format: cell-based; details: Homo sapiens, anti-CD3 and anti-CD28 antibodies, 24-hr culture supernatant
Method: as §1, §2

[5] = system: mouse model of NC/NGa dermatitis; experiment: (B7) Atopy, Method 2: spontaneous atopic dermatitis model; format: in vivo; details: oral once daily for 17 consecutive days
Method: [Method 2] Spontaneous atopic dermatitis mode:
In the mouse model of NC/NGa dermatitis, the drug was administered orally once daily for 17 consecutive days.

[6] = system: IL-4; experiment: (A3) Anti-CD3/CD28 antibody-stimulated cytokine production inhibitory activity in PBMC, ELISA: IL-4; format: cell-based; details: Homo sapiens, anti-CD3 and anti-CD28 antibodies, 24-hr culture supernatant
Method: as §1, §2

[7] = system: Arachidonic acid-induced ear edema model; experiment: (B7) Atopy, Method 1: arachidonic acid-induced ear edema model; format: in vivo, Balb/c mice; details: oral 30 minutes before arachidonic acid; auricle thickness after 1 hour
Method: [Method 1] Arachidonic acid-induced ear edema model:
To the left auricle of Balb/c mice, 2 mg/ear of arachidonic acid was applied to induce a skin inflammation. After 1 hour, the thickness of the auricle was measured with a peacock dial thickness gage and used as an indicator of skin inflammation. The drug was administered orally 30 minutes before application of arachidonic acid.

[8] = system: antigen-induced eosinophil infiltration in guinea pigs; experiment: (B8) Inhibitory effect on antigen-induced eosinophil infiltration in guinea pigs; format: in vivo, Hartley guinea pigs; details: oral 1 hour before the challenge; BAL 24 hours after challenge
Method: (B8) Inhibitory effect on antigen-induced eosinophil infiltration in guinea pigs
[Method] Male Hartley guinea pigs were sensitized by intravenous administration of guinea-pig anti-ovalbumin (OVA) antiserum. After 24 hours, an antigen challenge was performed by inhalation exposure to a nebulized 1% solution of OVA. At 24 hours after challenge with the antigen, the bronchial alveolar lavage (BAL) was collected and the number of eosinophils was determined using the eosinophil peroxidase activity in BAL as an indicator. The drug was administered orally 1 hour before the challenge. [Results]

[9] = system: TNF α; experiment: (A3) Anti-CD3/CD28 antibody-stimulated cytokine production inhibitory activity in PBMC, ELISA: TNF α; format: cell-based; details: Homo sapiens, anti-CD3 and anti-CD28 antibodies, 24-hr culture supernatant
Method: as §1, §2

[10] = Hygroscopicity; format: physicochemical
Excerpt: In the study on polymorphism of compound (I), six kinds of polymorphs (A01, A09, A16, A20, A30 and A43 crystals) were found. For each of those polymorphs, hygroscopicity, stability in solid state, solubility and changes in crystallinity on compounding with various solvents were studied. However, the A30 crystal was not studied since it contains ethanol.

[11] = system: LEC rat spontaneous hepatitis model; experiment: (B5) LEC rat spontaneous hepatitis model; format: in vivo, Long Evans Cinnamon (LEC) rats; details: oral once daily for 23 consecutive weeks
Method: (B5) LEC rat spontaneous hepatitis model
Long Evans Cinnamon (LEC) rats are known to spontaneously develop acute hepatitis with jaundice as a cardinal sign and 50~70% of them experience a fulminating stage and die. It is also known that almost all surviving animals run a clinical course of acute hepatitis-chronic hepatitis-biliary fibrosis (cirrhosis)-hepatocarcinoma.
[Method] To 9-week-old male LEC rats, either the drug or the solvent vehicle was administered orally in predetermined doses once daily for 23 consecutive weeks. On the day following the last dosing day, the blood was drawn and the liver isolated. Using the blood, the liver-derived enzymes (ALT, AST) in plasma were assayed. The liver was fixed in formalin and pathological specimens were prepared. Histopathological findings (inflammatory cell infiltration, biliary hyperplasia and liver cell necrosis) were evaluated.

[12] = system: Guinea-pig model of delayed asthma; experiment: (B6) Guinea-pig model of delayed asthma; format: in vivo, Hartley guinea pigs; details: oral 1 hour before exposure to the antigen; 4~8 hours after exposure
Method: (B6) Guinea-pig model of delayed asthma
[Method] Male Hartley guinea pigs were sensitized intraperitoneally with ovalbumin/Freund's complete adjuvant. On day 23 after immunization, the animals were caused to inhale a mist of ovalbumin solution from a sonic nebulizer for 3 minutes to elicit an asthmatic response. The drug was administered orally 1 hour before exposure to the antigen. The special airway resistance (sRaw) after exposure to the antigen was measured and the case in which the sRaw value had increased two-fold or more from the pre-exposure baseline in 4~8 hours was regarded as a case of delayed asthma.

[13] = system: DGalN/LPS-induced rat hepatitis model; experiment: (B1) DGalN/LPS-induced rat hepatitis model; format: in vivo, Wistar rats; details: oral, 24 hr after DGalN/LPS
Method: (B1) DGalN/LPS-induced rat hepatitis model
[Method] Male Wistar rats aged 12 weeks were deprived of food for 24 hours and dosed orally with the drug or the solvent vehicle in predetermined doses. Immediately thereafter, saline was administered from the tail vein to the NORMAL group and D-galactosamine hydrochloride (DGalN) (300 mg/kg)/LPS (0.32 µg/kg) was administered similarly to the CONTROL and DRUG groups. At 24 hr after administration of DGaIN/LAS, the blood was drawn and the liver isolated. Using the blood, liver-derived enzymes (ALT and AST) in plasma were assayed. The liver was fixed in formalin and phathological specimens were prepared. Histopathological findings (inflammatory cell infiltration and liver cell necrosis) were evaluated.

For CS(=O)(=O)O.O.O.O=C(Nc1cccc(-n2c(=O)c(Cc3cccnc3)nc3cccnc32)c1)c1cc(Cl)cc(Cl)c1 [Example 2, 4-(3-(3,5-dichlorobenzoylamino)phenyl)-2-(3-pyridyl)methyl-3-oxo-3,4-dihydropyrido[2,3-b]pyrazine methanesulfonate dihydrate], the “elevation of blood ALT” value ([1]; oral 1 hour before ConA) was “significantly inhibited”, the “elevation of blood AST” value ([1]; oral 1 hour before ConA) was “significantly inhibited” and the inflammatory cell infiltration ([1]; oral, histopathology) was “inhibited”. The liver cell necrosis ([1]; oral, histopathology) was “inhibited”, the IC50 [2] was 130 nM and the “elevation of blood ALT” value [3] was “significantly inhibited”. For the same molecule, the “elevation of blood AST” value [3] was “significantly inhibited”, the inflammatory cell infiltration ([3]; histopathology) was “inhibited” and the liver cell necrosis ([3]; histopathology) was “inhibited”. The IC50 [4] was 59.7 nM, the disease state-ameliorating effect [5] was “significant disease state-ameliorating effect” and the IC50 [6] was 155 nM. For the same molecule, the ear edema [7] was “significantly inhibited”, the “infiltration of eosinophils and other inflammatory cells into the bronchial alveola” value [8] was “inhibited” and the IC50 [9] was 44.5 nM. The Hygroscopicity [10] was “less hygroscopic”, the “elevation of blood ALT” value [11] was “significantly inhibited” and the “elevation of blood AST” value [11] was “significantly inhibited”. The inflammatory cell infiltration ([11]; histopathology) was “inhibited”, the liver cell necrosis ([11]; histopathology) was “inhibited” and the delayed asthmatic response [12] was “inhibited”. The “elevation of blood ALT” value [13] was “significantly inhibited”, the “elevation of blood AST” value [13] was “significantly inhibited” and the inflammatory cell infiltration ([13]; histopathology) was “inhibited”. For the same molecule, the liver cell necrosis ([13]; histopathology) was “inhibited”.
